The target of one test is T1, Liver carboxylesterase 1 (Homo sapiens, UniProt P23141).
T1 sequence (P23141 whole entry): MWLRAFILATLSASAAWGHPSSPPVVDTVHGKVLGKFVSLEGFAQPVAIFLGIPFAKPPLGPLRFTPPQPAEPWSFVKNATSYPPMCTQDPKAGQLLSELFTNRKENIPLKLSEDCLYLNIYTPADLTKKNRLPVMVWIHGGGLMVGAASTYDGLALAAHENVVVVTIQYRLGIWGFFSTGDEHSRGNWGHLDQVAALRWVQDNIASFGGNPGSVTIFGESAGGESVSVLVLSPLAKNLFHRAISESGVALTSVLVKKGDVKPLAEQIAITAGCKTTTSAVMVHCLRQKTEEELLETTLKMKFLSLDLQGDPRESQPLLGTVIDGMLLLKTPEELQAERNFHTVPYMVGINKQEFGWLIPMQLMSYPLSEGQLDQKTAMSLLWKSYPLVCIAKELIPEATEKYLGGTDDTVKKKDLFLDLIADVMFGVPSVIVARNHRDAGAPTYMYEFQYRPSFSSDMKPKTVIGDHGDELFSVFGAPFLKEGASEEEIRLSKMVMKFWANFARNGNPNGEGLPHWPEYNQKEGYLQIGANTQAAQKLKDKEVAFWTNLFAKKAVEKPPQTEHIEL
Briefly: Inhibition of CE1 in human liver microsomes using 2-(2-Benzoyl-3-methoxyphenyl) benzothiazole as substrate preincubated for 10 mins followed by substrate addition measured after 30 mins by LC-UV analysis.

The next test concerns the target T2, Cocaine esterase (Homo sapiens, UniProt O00748).
T2 sequence (O00748 whole entry): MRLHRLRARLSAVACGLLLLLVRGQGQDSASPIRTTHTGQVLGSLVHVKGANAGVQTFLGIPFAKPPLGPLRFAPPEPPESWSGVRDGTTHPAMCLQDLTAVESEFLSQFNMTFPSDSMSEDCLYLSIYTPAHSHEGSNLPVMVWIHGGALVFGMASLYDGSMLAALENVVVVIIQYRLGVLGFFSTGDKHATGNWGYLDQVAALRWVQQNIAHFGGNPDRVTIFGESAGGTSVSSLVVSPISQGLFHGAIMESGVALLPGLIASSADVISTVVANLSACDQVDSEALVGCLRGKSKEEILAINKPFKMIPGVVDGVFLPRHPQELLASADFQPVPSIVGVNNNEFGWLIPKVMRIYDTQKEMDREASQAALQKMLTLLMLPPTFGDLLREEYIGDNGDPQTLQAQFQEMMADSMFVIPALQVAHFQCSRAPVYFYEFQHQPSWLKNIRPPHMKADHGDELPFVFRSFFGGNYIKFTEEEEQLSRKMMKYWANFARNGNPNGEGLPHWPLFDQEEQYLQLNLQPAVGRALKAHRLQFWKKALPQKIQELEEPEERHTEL
Briefly: Inhibition of CE2 in human liver microsomes using fluorescein diacetate as substrate preincubated for 10 mins followed by substrate addition measured after 30 mins by LC-UV analysis.

The next test is filed under the species Homo sapiens. The test can be described thus: Selectivity ratio of IC50 for CE1 in human liver microsomes to IC50 for CE2 in human liver microsomes.

`CC(=O)O[C@H]1CC[C@]2(C)[C@H]3C(=O)C=C4[C@@H]5C[C@@](C)(C(=O)OCCN(C)C)CC[C@]5(C)CC[C@@]4(C)[C@]3(C)CC[C@H]2C1(C)C`: the figures for the IC50 against Liver carboxylesterase 1 and against Cocaine esterase were 12.3 µM and 3.42 µM, respectively. Moreover, the Ratio IC50 in the test filed under Homo sapiens was determined as 3.6.
In the case of `CCOC(=O)[C@@]1(C)CC[C@]2(C)CC[C@]3(C)C(=CC(=O)[C@@H]4[C@@]5(C)CC[C@H](OC(=O)CCC(=O)O)C(C)(C)[C@@H]5CC[C@]43C)[C@@H]2C1`, the results for the IC50 against Liver carboxylesterase 1 and against Cocaine esterase were more than 100 µM and 0.66 µM, respectively. Also, the Ratio IC50 in the test filed under Homo sapiens came to 152.
`CC(=O)O[C@H]1CC[C@]2(C)[C@H]3C(=O)C=C4[C@@H]5C[C@@](C)(C#N)CC[C@]5(C)CC[C@@]4(C)[C@]3(C)CC[C@H]2C1(C)C`: the 50% inhibitory concentration (IC50) against Liver carboxylesterase 1 and at Cocaine esterase was more than 100 µM in each case.
Regarding `CCOC(=O)[C@@]1(C)CC[C@]2(C)CC[C@]3(C)C(=CC(=O)[C@@H]4[C@@]5(C)CC[C@H](O)C(C)(C)[C@@H]5CC[C@]43C)[C@@H]2C1`, the IC50 is 26.3 µM on Liver carboxylesterase 1 and 5.7 µM on Cocaine esterase. For the same compound, the Ratio IC50 in the test listed under Homo sapiens turned out to be 4.6.
With `CC(=O)O[C@H]1CC[C@]2(C)[C@H]3C(=O)C=C4[C@@H]5C[C@@](C)(C(N)=O)CC[C@]5(C)CC[C@@]4(C)[C@]3(C)CC[C@H]2C1(C)C`, the IC50 at Liver carboxylesterase 1 turned out to be 11 µM; against Cocaine esterase, 7.36 µM. Further, the Ratio IC50 in the test filed under Homo sapiens amounted to 1.5.
For `COc1cc2c(cc1CC=C(C)C)C(=O)C[C@@H](c1ccc(O)cc1)O2` [BAVACHININ A] the same measures were 3.47 µM, 4.31 µM and 0.8.
`CC1(C)[C@@H](O)CC[C@]2(C)[C@H]3C(=O)C=C4[C@@H]5C[C@@](C)(C(=O)O)CC[C@]5(C)CC[C@@]4(C)[C@]3(C)CC[C@@H]12` [ENOXOLONE] gave an IC50 against Liver carboxylesterase 1 of 21 µM.
Take `CN(C)CCOC(=O)[C@@]1(C)CC[C@]2(C)CC[C@]3(C)C(=CC(=O)[C@@H]4[C@@]5(C)CC[C@H](O)C(C)(C)[C@@H]5CC[C@]43C)[C@@H]2C1`: the IC50 worked out at 9.13 µM on Liver carboxylesterase 1 and 3.95 µM against Cocaine esterase. In addition, the Ratio IC50 in the test filed under Homo sapiens was determined as 2.3.
As to `CC1(C)C(=O)CC[C@]2(C)[C@H]3C(=O)C=C4[C@@H]5C[C@@](C)(C(=O)O)CC[C@]5(C)CC[C@@]4(C)[C@]3(C)CC[C@@H]12`, the IC50 at Liver carboxylesterase 1 and against Cocaine esterase was more than 100 µM each time.
`CCOC(=O)[C@@]1(C)CC[C@]2(C)CC[C@]3(C)C(=CC[C@@H]4[C@@]5(C)CC[C@H](O)C(C)(C)[C@@H]5CC[C@]43C)[C@@H]2C1`: the IC50 against Liver carboxylesterase 1 is 25.1 µM; against Cocaine esterase, 3.99 µM. Besides, in the test listed under Homo sapiens, the Ratio IC50 was 6.3.
The compound `CC(=O)O[C@H]1CC[C@]2(C)[C@H]3C(=O)C=C4[C@@H]5C[C@@](C)(C(=O)O)CC[C@]5(C)CC[C@@]4(C)[C@]3(C)CC[C@H]2C1(C)C` [ACETOXOLONE] registered an IC50 against Liver carboxylesterase 1 of 49.9 µM.
Turning to `CC1(C)[C@@H](O)CC[C@]2(C)[C@H]3C(=O)C=C4[C@@H]5C[C@@](C)(C(N)=O)CC[C@]5(C)CC[C@@]4(C)[C@]3(C)CC[C@@H]12`, the IC50 against Liver carboxylesterase 1 came to 6.99 µM; against Cocaine esterase, 14.2 µM. Besides, the Ratio IC50 in the test listed under Homo sapiens was found to be 0.5.
As for `CCOC(=O)[C@@]1(C)CC[C@]2(C)CC[C@]3(C)C(=CC[C@@H]4[C@@]5(C)CC[C@H](OC(=O)CCC(=O)O)C(C)(C)[C@@H]5CC[C@]43C)[C@@H]2C1`, the IC50 on Liver carboxylesterase 1 is 20.4 µM.
On the same count and under the same terms, for `CC1(C)C(=O)CC[C@]2(C)[C@H]3CC=C4[C@@H]5C[C@@](C)(C(=O)O)CC[C@]5(C)CC[C@@]4(C)[C@]3(C)CC[C@@H]12` the value was 23.6 µM; for `CC1(C)[C@@H](O)CC[C@]2(C)[C@H]3CC=C4[C@@H]5C[C@@](C)(C(=O)O)CC[C@]5(C)CC[C@@]4(C)[C@]3(C)CC[C@@H]12`, 10.5 µM.
Still for that read-out and setting: to `O=[N+]([O-])c1ccc(OP(=O)(O)Oc2ccc([N+](=O)[O-])cc2)cc1` belongs 0.14 µM.
Regarding `COC(=O)[C@@]1(C)CC[C@]2(C)CC[C@]3(C)C(=CC(=O)[C@@H]4[C@@]5(C)CC[C@H](O)C(C)(C)[C@@H]5CC[C@]43C)[C@@H]2C1`, the IC50 against Liver carboxylesterase 1 was found to be 22.4 µM; on Cocaine esterase it was 5.61 µM. Besides, the Ratio IC50 in the test listed under Homo sapiens was 4.

The values above are taken from ChEMBL document CHEMBL3774325, “Design, synthesis, and structure-activity relationship study of glycyrrhetinic acid derivatives as potent and selective inhibitors against human carboxylesterase 2” (Eur J Med Chem, 2016).
